In brackets after ≈: the same amount, converted by molar mass. Where two headings read alike, the source gives them in different places. Residues, ends and D or L forms follow the SMILES beside them.
Experiments:
[1] = system: S. aureus 3089(R) (MRSA 3089); assay type: cell-based, Staphylococcus aureus; conditions: multidrug-resistant strain; 1% peptone media, 16 h at 37 °C
[2] = system: S. aureus 3108(R) (MRSA 3108); assay type: cell-based, Staphylococcus aureus; conditions: multidrug-resistant strain; 1% peptone media, 16 h at 37 °C
[3] = system: Pseudomonas aeruginosa KCTC 1637; assay type: cell-based
Excerpt: (§1) Four Gram-negative bacteria species (Escherichia coli KCTC 1682, Acinetobacter baumannii KCTC 2508, Pseudomonas aeruginosa KCTC 1637 and Salmonella typhimurium KCTC 1926) and three Gram-positive bacteria species (Staphylococcus aureus KCTC 1621, Bacillus subtilis KCTC 3028 and Staphylococcus epidermidis KCTC 1917) were procured from the Korean Collection for Type Cultures (KCTC). Multi-drug-resistant Gram-negative bacteria (Salmonella typhimurium CCARM 8003 and 8007, Escherichia coli CCARM 1229 and 1238, Pseudomonas aeruginosa CCARM 2002 and 2095 and Acinetobacter baumannii CCARM 12035 and 12036) were obtained from the Culture Collection of Antibiotic-Resistant Microbes (CCARM). To determine MICs, bacteria were cultured in Luria-Bertani (LB) medium for overnight at 37 °C. An aliquot of the culture was incubated in 1% peptone media at 37 °C until mid-log phase. 100 μl of serial 2-fold diluted peptides were treated in 96 well plates and added to 100 μl of 2 × 10^6 CFU/ml bacterial suspensions in 1% peptone media for 16 h at 37 °C.

[4] = system: Pseudomonas aeruginosa CCARM 2002 (MDRPA 2002); assay type: cell-based; conditions: multidrug-resistant strain; 1% peptone media, 16 h at 37 °C
Excerpt: as §1

[5] = system: Bacillus subtilis KCTC 3028; assay type: cell-based
Excerpt: as §1

[6] = system: Escherichia coli KCTC 1682; assay type: cell-based
Excerpt: as §1

[7] = system: Salmonella typhimurium KCTC 1926; assay type: cell-based
Excerpt: as §1

[8] = system: Escherichia coli CCARM 1229 (MDREC 1229); assay type: cell-based; conditions: multidrug-resistant strain; 1% peptone media, 16 h at 37 °C
Excerpt: as §1

[9] = system: Salmonella typhimurium CCARM 8003 (MDRST 8003); assay type: cell-based; conditions: multidrug-resistant strain; 1% peptone media, 16 h at 37 °C
Excerpt: as §1

[10] = system: Pseudomonas aeruginosa CCARM 2095 (MDRPA 2095); assay type: cell-based; conditions: multidrug-resistant strain; 1% peptone media, 16 h at 37 °C
Excerpt: as §1

[11] = system: Acinetobacter baumannii CCARM 12035 (MDRAB 12035); assay type: cell-based; conditions: multidrug-resistant strain; 1% peptone media, 16 h at 37 °C
Excerpt: as §1

[12] = system: Staphylococcus epidermidis KCTC 1917; assay type: cell-based
Excerpt: as §1

[13] = system: Escherichia coli CCARM 1238 (MDREC 1238); assay type: cell-based; conditions: multidrug-resistant strain; 1% peptone media, 16 h at 37 °C
Excerpt: as §1

[14] = system: Acinetobacter baumannii KCTC 2508; assay type: cell-based
Excerpt: as §1

[15] = system: Gram-negative bacteria (E. coli, A. baumannii, P. aeruginosa, S. typhimurium); assay type: cell-based
Excerpt: as §1

[16] = system: Staphylococcus aureus KCTC 1621; assay type: cell-based
Excerpt: as §1

[17] = system: Acinetobacter baumannii CCARM 12036 (MDRAB 12036); assay type: cell-based; conditions: multidrug-resistant strain; 1% peptone media, 16 h at 37 °C
Excerpt: as §1

[18] = system: Gram-positive bacteria (S. aureus, B. subtilis, S. epidermidis); assay type: cell-based
Excerpt: as §1

[19] = system: Salmonella typhimurium CCARM 8007 (MDRST 8007); assay type: cell-based; conditions: multidrug-resistant strain; 1% peptone media, 16 h at 37 °C
Excerpt: as §1

[20] = system: S. aureus 3126(R) (MRSA 3126); assay type: cell-based, Staphylococcus aureus; conditions: multidrug-resistant strain; 1% peptone media, 16 h at 37 °C
[21] = system: human red blood cells (hRBCs); experiment: Haemolytic activity; assay type: cell-based
Description: Peptide-induced lysis of human red blood cells (hRBCs) was determined as follows. Fresh hRBCs were washed 2–3 times with phosphate-buffered saline (PBS) by centrifugation for 5 min at 2500 rpm at 4 °C. Peptides in PBS were incubated with 4% (v/v) hRBCs for 1 h at 37 °C. Samples were then centrifuged for 5 min at 1000 × g. The absorbance of the supernatant at 405 nm was used as a measure of haemolysis. As a positive control, 100% haemolysis was obtained by treating hRBCs with 0.1% Triton X-100.

[22] = standard strain KCTC 1637, 1% peptone media, 16 h at 37 °C, three independent experiments in triplicate, SD 14.0%
[23] = standard strain KCTC 3028, 1% peptone media, 16 h at 37 °C, three independent experiments in triplicate, SD 14.0%
[24] = standard strain KCTC 1682, 2-fold dilutions, 1% peptone media, 2 × 10^6 CFU/ml suspension, 16 h at 37 °C, three independent experiments in triplicate, SD 14.0%
[25] = standard strain KCTC 1926, 1% peptone media, 16 h at 37 °C, three independent experiments in triplicate, SD 14.0%
[26] = standard strain KCTC 1917, 1% peptone media, 16 h at 37 °C, three independent experiments in triplicate, SD 14.0%
[27] = standard strain KCTC 2508, 1% peptone media, 16 h at 37 °C, three independent experiments in triplicate, SD 14.0%
[28] = average over the four Gram-negative standard strains
[29] = standard strain KCTC 1621, 1% peptone media, 16 h at 37 °C, three independent experiments in triplicate, SD 14.0%
[30] = average over the three Gram-positive standard strains

SMILES | MIC, MRSA 3089 [1] | MIC, MRSA 3108 [2] | MIC, P. aeruginosa [3, 22] | MIC, MDRPA 2002 [4] | MIC, B. subtilis [5, 23] | MIC, E. coli [6, 24] | MIC, S. typhimurium [7, 25] | MIC, MDREC 1229 [8] | MIC, MDRST 8003 [9] | MIC, MDRPA 2095 [10] | MIC, MDRAB 12035 [11] | MIC, S. epidermidis [12, 26] | MIC, MDREC 1238 [13] | MIC, A. baumannii [14, 27] | Average MIC, Gram-negative [15, 28] | MIC, S. aureus [16, 29] | MIC, MDRAB 12036 [17] | Average MIC, Gram-positive [18, 30] | MIC, MDRST 8007 [19] | MIC, MRSA 3126 [20] | also measured
CC[C@H](C)[C@H](NC(=O)CN)C(=O)NCC(=O)N[C@@H](C)C(=O)N[C@H](C(=O)N[C@@H](CC(C)C)C(=O)N[C@@H](CCCCN)C(=O)N[C@H](C(=O)N[C@@H](CC(C)C)C(=O)N[C@H](C(=O)N[C@H](C(=O)NCC(=O)N[C@@H](CC(C)C)C(=O)N1CCC[C@H]1C(=O)N[C@@H](C)C(=O)N[C@@H](CC(C)C)C(=O)N[C@H](C(=O)N[C@@H](CO)C(=O)N[C@@H](Cc1c[nH]c2ccccc12)C(=O)N[C@H](C(=O)N[C@@H](CCCCN)C(=O)N[C@@H](CCCNC(=N)N)C(=O)N[C@@H](CCCCN)C(=O)N[C@@H](CCCNC(=N)N)C(=O)N[C@@H](CCC(N)=O)C(=O)N[C@@H](CCC(N)=O)C(N)=O)[C@@H](C)CC)[C@@H](C)CC)[C@@H](C)O)[C@@H](C)O)C(C)C)C(C)C [Melittin, reference compound] | 2 µM (≈ 5.69 µg/mL) | 2 µM (≈ 5.69 µg/mL) | 4 µM (≈ 11.4 µg/mL) | 2 µM (≈ 5.69 µg/mL) | 4 µM (≈ 11.4 µg/mL) | 4 µM (≈ 11.4 µg/mL) | 8 µM (≈ 22.8 µg/mL) | 4 µM (≈ 11.4 µg/mL) | 8 µM (≈ 22.8 µg/mL) | 2 µM (≈ 5.69 µg/mL) | 4 µM (≈ 11.4 µg/mL) | 2 µM (≈ 5.69 µg/mL) | 4 µM (≈ 11.4 µg/mL) | 4 µM (≈ 11.4 µg/mL) | 5 µM | 4 µM (≈ 11.4 µg/mL) | 4 µM (≈ 11.4 µg/mL) | 3.33 µM | 8 µM (≈ 22.8 µg/mL) | 2 µM (≈ 5.69 µg/mL) | 
CC[C@H](C)[C@H](NC(=O)[C@H](C)NC(=O)[C@H](CCCCN)NC(=O)[C@H](Cc1c[nH]cn1)NC(=O)[C@@H](NC(=O)[C@@H]1CCCN1C(=O)[C@H](CCC(N)=O)NC(=O)[C@H](Cc1ccccc1)NC(=O)[C@@H](NC(=O)[C@H](CCCCN)NC(=O)[C@H](CCCCN)NC(=O)[C@H](CC(C)C)NC(=O)[C@H](C)NC(=O)[C@H](CC(N)=O)NC(=O)[C@H](CC(C)C)NC(=O)CN)C(C)C)[C@@H](C)CC)C(=O)N[C@@H](CCCCN)C(=O)N[C@@H](CCCCN)C(=O)N[C@H](C(=O)N[C@@H](CC(N)=O)C(=O)N[C@@H](CC(N)=O)C(=O)N[C@@H](Cc1c[nH]cn1)C(=O)N[C@H](C(=O)N[C@@H](CCC(N)=O)C(=O)O)C(C)C)[C@@H](C)CC [Ps-K14-K18-P] (H-GLNALKKVFQPIHKAIKKINNHVQ-OH) | 32 µM (≈ 87.7 µg/mL) | 32 µM (≈ 87.7 µg/mL) | 8 µM (≈ 21.9 µg/mL) | 16 µM (≈ 43.8 µg/mL) | 32 µM (≈ 87.7 µg/mL) | 4 µM (≈ 11 µg/mL) | 8 µM (≈ 21.9 µg/mL) | 8 µM (≈ 21.9 µg/mL) | 16 µM (≈ 43.8 µg/mL) | 16 µM (≈ 43.8 µg/mL) | 16 µM (≈ 43.8 µg/mL) | 64 µM (≈ 175 µg/mL) | 8 µM (≈ 21.9 µg/mL) | 8 µM (≈ 21.9 µg/mL) | 7 µM | 32 µM (≈ 87.7 µg/mL) | 8 µM (≈ 21.9 µg/mL) | 42.67 µM | 16 µM (≈ 43.8 µg/mL) | 64 µM (≈ 175 µg/mL) | haemolysis at 400 μM ([21]; 400 μM peptide, 4% hRBCs, PBS, 1 h at 37 °C, 100% = 0.1% Triton X-100): 0.3%; MHC (minimal peptide concentration that produces haemolysis) ([21]; 4% (v/v) hRBCs in PBS, 1 h at 37 °C, absorbance 405 nm, printed in both Gram-negative and Gram-positive sections): 400 µM
CC[C@H](C)[C@H](NC(=O)CNC(=O)[C@H](CCC(N)=O)NC(=O)[C@H](Cc1ccccc1)NC(=O)[C@@H](NC(=O)[C@H](CCCCN)NC(=O)[C@H](CCCCN)NC(=O)[C@H](CC(C)C)NC(=O)[C@H](C)NC(=O)[C@H](CC(N)=O)NC(=O)[C@H](CC(C)C)NC(=O)CN)C(C)C)C(=O)N[C@@H](Cc1c[nH]cn1)C(=O)N[C@@H](CCCCN)C(=O)N[C@@H](C)C(=O)N[C@H](C(=O)N[C@@H](CCCCN)C(=O)N[C@@H](CCCCN)C(=O)N[C@H](C(=O)N[C@@H](CC(N)=O)C(=O)N[C@@H](CC(N)=O)C(=O)N[C@@H](Cc1c[nH]cn1)C(=O)N[C@H](C(=O)N[C@@H](CCC(N)=O)C(=O)O)C(C)C)[C@@H](C)CC)[C@@H](C)CC [Ps-K14-K18] (H-GLNALKKVFQGIHKAIKKINNHVQ-OH) | 8 µM (≈ 21.6 µg/mL) | 4 µM (≈ 10.8 µg/mL) |  | 2 µM (≈ 5.4 µg/mL) |  |  |  | 2 µM (≈ 5.4 µg/mL) | 4 µM (≈ 10.8 µg/mL) | 4 µM (≈ 10.8 µg/mL) | 2 µM (≈ 5.4 µg/mL) |  | 2 µM (≈ 5.4 µg/mL) |  |  |  | 2 µM (≈ 5.4 µg/mL) |  | 4 µM (≈ 10.8 µg/mL) | 4 µM (≈ 10.8 µg/mL) | MHC (minimal peptide concentration that produces haemolysis) ([21]; red cells of human, 1 h): 100 µM; haemolysis at 100 μM ([21]; red cells of human, 1 h, 100): 1.1%; MIC, P. aeruginosa ([3]; KCTC 1637, 16 h): 2 µM (≈ 5.4 µg/mL); MIC, B. subtilis ([5]; KCTC 3028, 16 h): 8 µM (≈ 21.6 µg/mL); MIC, E. coli ([6]; KCTC 1682, 16 h): 1 µM (≈ 2.7 µg/mL); MIC, S. typhimurium ([7]; KCTC 1926, 16 h): 2 µM (≈ 5.4 µg/mL); MIC, S. epidermidis ([12]; KCTC 1917, 16 h): 16 µM (≈ 43.2 µg/mL); MIC, A. baumannii ([14]; KCTC 2508, 16 h): 2 µM (≈ 5.4 µg/mL); Average MIC, Gram-negative ([15]; 16 h): 1.75 µM; MIC, S. aureus ([16]; KCTC 1621, 16 h): 8 µM (≈ 21.6 µg/mL); Average MIC, Gram-positive ([18]; 16 h): 10.67 µM

Source: PMC5431190, “Investigation of cationicity and structure of pseudin-2 analogues for enhanced bacterial selectivity and anti-inflammatory activity” (Scientific Reports, 2017)
